Among the data in PubChem BioAssay (NCI) are TGI values, retold here.

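Cells were grown in 96-well plates and exposed to each compound for 48 hours at five concentrations; endpoints were interpolated linearly between bracketing concentrations, or set to the highest concentration if not reached. TGI denotes the concentration required for complete inhibition of growth.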

Some test systems named below: SNB-19 CNS; MDA-MB-231 breast; NCI-H460 lung; HL-60(TB) leukemia; A549 NSCLC; OVCAR-8 ovarian; HCT-15 colon; NCI-H23 lung; HCT-116 colon; OVCAR-5 ovarian.
What all share (test): NCI tumour cell line growth inhibition, 48 h

`OC(c1ccccc1)(c1ccccc1)c1nccc2ccccc12`: the TGI with SNB-19 CNS is above 100 µM; with MDA-MB-231 breast, above 100 µM; with NCI-H460 lung it was 43.7 µM; with HL-60(TB) leukemia, above 100 µM; in the experiment on A549 NSCLC, above 100 µM; in the experiment with OVCAR-8 ovarian, above 100 µM. For the same compound, the TGI was above 100 µM in the experiment with HCT-15 colon, 89.5 µM in the experiment on NCI-H23 lung, 97 µM in the experiment on HCT-116 colon and above 100 µM in the experiment with OVCAR-5 ovarian.
On to `CC(ON(C(c1ccccc1)C(C)C)C(C)(C)C)c1ccccc1` (stereo not given), for which the TGI in the experiment with SNB-19 CNS is 35.9 µM; with MDA-MB-231 breast, 39.3 µM; in the experiment on NCI-H460 lung, 39.1 µM; in the experiment on HL-60(TB) leukemia, 36.7 µM; in the experiment on A549 NSCLC, 84.9 µM; in the experiment with OVCAR-8 ovarian, 51.7 µM. Moreover, the TGI was above 100 µM in the experiment on HCT-15 colon, 63.9 µM in the experiment with NCI-H23 lung, 33.9 µM with HCT-116 colon and 29.8 µM in the experiment on OVCAR-5 ovarian.
Regarding `Nc1c(C(=O)O)nnc2cc(Cl)c(Cl)cc12`, the TGI in the experiment with SNB-19 CNS, with MDA-MB-231 breast, in the experiment with NCI-H460 lung, in the experiment on HL-60(TB) leukemia, with A549 NSCLC and in the experiment with OVCAR-8 ovarian was above 100 µM each time. The TGI in the experiment on HCT-15 colon, with NCI-H23 lung, in the experiment on HCT-116 colon and in the experiment on OVCAR-5 ovarian was above 100 µM each time.
With `Cn1cnc([N+](=O)[O-])c1Sc1nc(N)nc2c1ncn2C1OC(CO)C(O)C1O` (stereo not given), the TGI in the experiment with SNB-19 CNS is above 100 µM; in the experiment with MDA-MB-231 breast, above 100 µM; in the experiment on NCI-H460 lung, 28.1 µM; in the experiment on HL-60(TB) leukemia, 28.4 µM; in the experiment on A549 NSCLC it was above 91 µM; in the experiment with OVCAR-8 ovarian, above 100 µM. The TGI was above 100 µM with HCT-15 colon, 41.4 µM in the experiment on NCI-H23 lung, above 52.2 µM in the experiment with HCT-116 colon and above 100 µM with OVCAR-5 ovarian.
Take `COc1ccc(C2NC(=S)Nc3c2c(=O)oc2c3ccc3ccccc32)cc1` (stereo not given): the TGI with SNB-19 CNS, with MDA-MB-231 breast, with NCI-H460 lung, in the experiment on HL-60(TB) leukemia, in the experiment with A549 NSCLC and in the experiment on OVCAR-8 ovarian was above 100 µM throughout. For the same compound, the TGI in the experiment with HCT-15 colon, in the experiment with NCI-H23 lung, in the experiment on HCT-116 colon and in the experiment with OVCAR-5 ovarian was above 100 µM each time.
